Source: patent US11213509B2, “Compositions and methods for treating traumatic brain injury” (Ischemix, LLC, priority 2017, dated 2022)

Columns and labels:
[1] = tested on: fluid percussion model of diffused traumatic brain injury (TBI) in rats; assay: Body swing test, fluid percussion model of diffused TBI; format: in vivo, rat; conditions: 45 mg/kg i.v. at 30 minutes and 24 hours after TBI; Day 28; vs vehicle, p<0.05
Protocol: On the day before TBI surgery (Day −1), rats were anesthetized with 3% isoflurane in a mixture of nitrous oxide and oxygen (2:1) for induction of anesthesia and then maintained at 1-3% isoflurane in a mixture of nitrous oxide and oxygen (2:1). The surgical site skin was shaved, and the rat was then placed in a stereotaxic frame. Buprenorphine SR, s.c, (0.9-1.2 mg/kg Zoopharm: Lot: BSR1-142111) and Cefazolin, i.p., (40-50 mg/kg; Hospira: Lot: 101D032) was given at this time. The skull was exposed through a midline incision. A parasagittal craniotomy (5 mm) using a trephine drill was performed at 1 mm posterior to bregma and 1 mm lateral to the midline (outer circumference). […]
On the day of TBI surgery (Day 0), rats were re-anesthetized with 3% isoflurane in a mixture of nitrous oxide and oxygen (2:1), intubated, connected to a respirator and ventilated with 1-2% isoflurane in a mixture of nitrous oxide and oxygen (2:1). […] The amplitude of the resulting pressure pulse was measured in atmospheres by a pressure transducer. […]
Dosing solutions were prepared in a blinded fashion with H, I, M, O and Z labels ready to use. […]
The rat was held approximately one inch from the base of its tail. […] A swing was recorded whenever the rat moved its head out of the vertical axis to either side. The rat must have returned to the vertical position for the next swing to be counted. Thirty (30) total swings were counted. […]

[2] = Body weight and post-operative observations, rat model of focal TBI (BCCI); format: in vivo
From the text: Adult, male, Spague-Dawley rats from Charles River were used. Animals were received at PsychoGenics and assigned unique identification numbers (tails marked). Animals were housed 2 per cage in polycarbonate rat cages equipped with microisolators and acclimated for up to 7 days. All rats were examined, handled, and weighed prior to initiation of the study to assure adequate health and suitability. During the course of the study, 12/12 light/dark cycles were maintained. The room temperature was maintained between 20 and 23° C. with a relative humidity maintained around 50%. Chow and water were provided ad libitum for the duration of the study. Animals were randomly assigned across treatment groups.
BCCI TBI to the medial frontal cortex (MFC) was induced by a cortical contusion device (Custom Design & Fabrication, Inc [CDF], Richmond, Va.). This device creates a reliable contusion injury to the exposed area of the brain with a brass-tipped impounder. (Hoffman et al., 1994). Rats were anesthetized with isoflurane (5%) (Novaplus™), and 02 (300 cm^3/min), and mounted in a stereotaxic frame. […]
Data are presented as mean±SEM and analyzed by one-way repeated measures Analysis of variance (ANOVA) in order to test the effects of treatment on beam balance times and Morris water maze performance. […]

With `CC(NC(=O)C(CCC(=O)O)NC(=O)CCCCC1CCSS1)C(=O)O` [CMX-2043, N—(R)-lipoyl-glutamylalanine] the “Body swing test recovery” value [1] was “superior recovery compared to vehicle-treated animals”, the “Body weight / weight gain” value ([2]; 30 mg/kg IV at 30 minutes and about 24 hrs after injury, vs saline) was “no adverse effects on weight gain” and the “Survival (deaths within 24 hours post-injury)” value ([2]; 30 mg/kg IV, TBI-injured rats) was 9 surviving animals of the 11 animals treated.
